In assay [1] the test system is phospho-ERK1/2 in A375 cells. In words: cells. Conditions: Homo sapiens, A-375, 3 h, read-out: A375 ICW IC50.
Procedure: Human melanoma A375 cells were seeded at 50,000 cells per well in 100 μl growth medium in Costar 96 well black clear bottom plates and placed at 37° C./5% CO2 over night. Test compounds were diluted in DMSO to generate a concentration curve. A 5 mM stock was used for the highest concentration at 500 times; to yield a final concentration of 10 μM with 3-fold dilutions down to 0.0001 μM. 1 μl of diluted compound was added to 500 μl cell culture media and mixed well. Media was removed from cells and 200 μl of media containing compound was added. Cells were treated for 3 hrs with compound at 37° C., 5% CO2.
After the compound incubation, cells were washed once with PBS (Mg^++,Ca^++) and fixed in 4% paraformaldehyde/PBS for 1 hr at room temperature. Following fixation, cells were washed three times with PBS/0.1% TritonX-100(PBST), and then blocked with 5% skimmed milk/PBST, for 1-2 hr. 50 μL per well primary antibody was added (rabbit-anti-phospho-ERK1/2) at 1:500 in 5% skimmed milk/PBST and incubated overnight at 4° C. Cells were washed four times with 100 μl DELFIA wash buffer and 50 μL per well secondary antibody was added (DELFIA-EU-N1-labeled anti-rabbit antibody) at 1:3000 in DELFIA assay buffer and incubated for 2 hr at room temperature in the dark (covered). Cells were washed 4× with 100 μl DELFIA wash buffer. 50 μL per well Wallac-DELFIA enhancement solution was added. […]
Another assay deals with A375 cells. In words: cells. Conditions: Homo sapiens, A-375, 72 h, read-out: A375 XTT IC50 uM.
The target in assay [2] is recombinant human activated BRAF (V599E) kinase (Homo sapiens (Human), UniProt P15056, V600E). In words: biochemical.
The target of assay [3] is activated MAP kinase 2/ERK2 (Homo sapiens (Human), UniProt P28482). In words: biochemical.
activated MAP kinase 2/ERK2, sequence (P28482 whole entry, looked up): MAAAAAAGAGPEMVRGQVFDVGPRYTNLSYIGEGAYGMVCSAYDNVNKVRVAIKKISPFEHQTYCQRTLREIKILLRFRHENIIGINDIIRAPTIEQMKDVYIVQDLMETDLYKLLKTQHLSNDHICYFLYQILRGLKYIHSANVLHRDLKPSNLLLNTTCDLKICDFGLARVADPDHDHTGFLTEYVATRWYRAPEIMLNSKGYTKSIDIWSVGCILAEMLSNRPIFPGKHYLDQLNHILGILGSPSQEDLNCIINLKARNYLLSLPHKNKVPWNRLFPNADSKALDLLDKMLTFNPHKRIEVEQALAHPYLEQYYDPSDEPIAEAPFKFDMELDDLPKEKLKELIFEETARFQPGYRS

The source of these data is patent publication US10011599B2 (priority 2013, dated 2018).

Each structure is given as a SMILES string.

recombinant human activated BRAF (V599E) kinase, sequence (P15056 417-766 V600E limits assumed): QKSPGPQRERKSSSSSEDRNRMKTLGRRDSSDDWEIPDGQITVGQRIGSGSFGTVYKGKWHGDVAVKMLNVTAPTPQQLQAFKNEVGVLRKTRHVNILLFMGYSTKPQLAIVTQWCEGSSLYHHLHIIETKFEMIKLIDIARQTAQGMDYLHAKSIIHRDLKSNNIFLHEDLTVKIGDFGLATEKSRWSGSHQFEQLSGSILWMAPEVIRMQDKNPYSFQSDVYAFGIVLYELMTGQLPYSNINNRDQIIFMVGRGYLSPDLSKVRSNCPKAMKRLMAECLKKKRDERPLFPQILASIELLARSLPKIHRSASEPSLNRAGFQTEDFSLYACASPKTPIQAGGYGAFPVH

As usually defined, the IC50 is the midpoint of a concentration-inhibition curve. The inhibition is the drop in the measured response relative to a control, in per cent. Regarding `Cc1nc2cnc3cc(F)c(-c4ccc(Oc5ncccn5)cc4Cl)cc3c2n1[C@H]1CCN(C(=O)CO)C[C@@H]1F` [Example 1A, 1-((3S,4S)-4-(8-(2-chloro-4-(pyrimidin-2-yloxy)phenyl)-7-fluoro-2-methyl-1H-imidazo[4,5-c]quinolin-1-yl)-3-fluoropiperidin-1-yl)-2-hydroxyethanone], the IC50 in assay [1] was determined as 3.9 nM; with A375 cells, 0.003 µM. Also, the inhibition at 10 µM in assay [2] was determined as 0%; in assay [3], 55%.
